We go through 6 molecules from patent publication US8802866B2, “Pyridinylimidazolone derivatives for the inhibition of PI3 kinases” (Merck Patent GmbH, priority 2009, dated 2014).

Usually melting point stands for the temperature of the solid-liquid transition. The IC50 is the concentration that gives 50% inhibition. By Kd is commonly meant the concentration at which binding is half-saturated.

The target in one data set is PI3Kbeta (Homo sapiens, UniProt P42338). Put plainly: Biochemical PI3Kbeta assay (neomycin SPA, lipid phosphorylation). The following applies: human recombinant GST-PI3K. The essentials:
(§1)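 Recombinant PI3K incubated with lipid substrate and radioactive ATP for 120 min at room temperature with gentle stirring, then stopped with neomycin-coated PVT-SPA beads, ATP 60 mM and EDTA 6.2 mM in PBS. After 60 min bead binding and centrifugation, radioactive Ptdlns(3)P counted by scintillation.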

The next data set has as its target PI3Kalpha (Homo sapiens, UniProt P42336). Put plainly: Biochemical PI3Kalpha assay (neomycin SPA, lipid phosphorylation). The following applies: human recombinant GST-PI3K. The essentials:
as §1

Data set [1] addresses recombinant PI3Kalpha (shortened form of the catalytic subunit) (Homo sapiens, UniProt P42336). Put plainly: BIACORE PI3K binding assay (SPR). The following applies: 25° C. The procedure, abridged: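 Contact time was 180 s and dissociation 240 s, in HEPES pH 7.40 buffer with 2% DMSO. Solvent-corrected, double-referenced data were fitted to a 1:1 model with mass transport.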
For orientation: Surface plasmon resonance follows binding to a sensor surface in real time, without labels.

The test system of data set [2] is PI3K-dependent phosphorylation of PKB at Serin 473 in PC3 cells. Nature of the data set: Cellular PI3K assay (P-S473-PKB Luminex assay in PC3 cells). It counts as cell-based. The following applies: Homo sapiens, PC-3, 0.5 h; PC3 cells, 30 min, serum-free, P-S473-PKB; read-out: IC50 (cell). The essentials: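 PC3 cells were exposed for 30 min under serum-free conditions to 7 concentrations of compound, then lysed. Lysates were captured overnight at 4°C on anti-total-PKB Luminex beads and detected with P-S473-PKB antibody plus PE-labelled secondary.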

In another data set the target is DNA-PK protein complex (Homo sapiens, UniProt P78527). Nature of the data set: Biochemical DNA-PK assay (FlashPlate). The essentials: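 Streptavidin-coated FlashPlate radiometric kinase assay, stopped with 200 mM EDTA, then wells washed with 0.9% NaCl and bound radioactivity counted. Blank (non-specific reaction) defined with a proprietary kinase inhibitor at 10 μM.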

For a further data set, the target named is T1, mTOR (Homo sapiens, UniProt P42345).
T1 construct: purchased Millipore 14-770
Put plainly: Biochemical mTOR assay (Millipore mTOR assay kit). As to the method: The biochemical mTOR assay was carried out by the method described in the Millipore mTOR assay kit (catalogue number 14-770).

In another data set the target is CK2 protein kinase. The following applies: cited from earlier work.

Chain of recombinant PI3Kalpha (shortened form of the catalytic subunit) (P42336 151-1068 limits assumed): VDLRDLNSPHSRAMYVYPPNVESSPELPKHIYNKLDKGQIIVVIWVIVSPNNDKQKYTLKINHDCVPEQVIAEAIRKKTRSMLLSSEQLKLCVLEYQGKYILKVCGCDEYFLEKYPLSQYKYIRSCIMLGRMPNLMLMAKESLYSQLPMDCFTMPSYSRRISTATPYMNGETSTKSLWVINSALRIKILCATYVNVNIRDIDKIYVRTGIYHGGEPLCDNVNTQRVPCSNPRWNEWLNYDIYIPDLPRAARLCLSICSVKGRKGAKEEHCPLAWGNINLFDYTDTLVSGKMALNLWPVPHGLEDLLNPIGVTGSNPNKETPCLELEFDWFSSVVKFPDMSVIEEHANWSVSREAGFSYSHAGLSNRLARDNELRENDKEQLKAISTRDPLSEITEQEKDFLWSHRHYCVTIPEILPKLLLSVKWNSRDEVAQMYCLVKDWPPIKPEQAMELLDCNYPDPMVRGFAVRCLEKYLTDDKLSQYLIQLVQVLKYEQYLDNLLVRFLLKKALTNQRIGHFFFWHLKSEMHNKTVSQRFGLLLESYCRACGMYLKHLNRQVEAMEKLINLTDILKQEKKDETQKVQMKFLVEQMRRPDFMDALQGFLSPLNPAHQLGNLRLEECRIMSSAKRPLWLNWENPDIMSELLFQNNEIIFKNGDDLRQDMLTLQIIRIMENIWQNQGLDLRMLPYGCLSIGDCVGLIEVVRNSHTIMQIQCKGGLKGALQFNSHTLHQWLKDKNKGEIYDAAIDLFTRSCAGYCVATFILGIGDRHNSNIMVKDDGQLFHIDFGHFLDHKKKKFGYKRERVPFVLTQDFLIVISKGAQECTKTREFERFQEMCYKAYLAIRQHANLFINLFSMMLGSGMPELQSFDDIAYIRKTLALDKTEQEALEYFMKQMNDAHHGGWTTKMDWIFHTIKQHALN
T1 sequence (P42345 1362-2549 limits assumed): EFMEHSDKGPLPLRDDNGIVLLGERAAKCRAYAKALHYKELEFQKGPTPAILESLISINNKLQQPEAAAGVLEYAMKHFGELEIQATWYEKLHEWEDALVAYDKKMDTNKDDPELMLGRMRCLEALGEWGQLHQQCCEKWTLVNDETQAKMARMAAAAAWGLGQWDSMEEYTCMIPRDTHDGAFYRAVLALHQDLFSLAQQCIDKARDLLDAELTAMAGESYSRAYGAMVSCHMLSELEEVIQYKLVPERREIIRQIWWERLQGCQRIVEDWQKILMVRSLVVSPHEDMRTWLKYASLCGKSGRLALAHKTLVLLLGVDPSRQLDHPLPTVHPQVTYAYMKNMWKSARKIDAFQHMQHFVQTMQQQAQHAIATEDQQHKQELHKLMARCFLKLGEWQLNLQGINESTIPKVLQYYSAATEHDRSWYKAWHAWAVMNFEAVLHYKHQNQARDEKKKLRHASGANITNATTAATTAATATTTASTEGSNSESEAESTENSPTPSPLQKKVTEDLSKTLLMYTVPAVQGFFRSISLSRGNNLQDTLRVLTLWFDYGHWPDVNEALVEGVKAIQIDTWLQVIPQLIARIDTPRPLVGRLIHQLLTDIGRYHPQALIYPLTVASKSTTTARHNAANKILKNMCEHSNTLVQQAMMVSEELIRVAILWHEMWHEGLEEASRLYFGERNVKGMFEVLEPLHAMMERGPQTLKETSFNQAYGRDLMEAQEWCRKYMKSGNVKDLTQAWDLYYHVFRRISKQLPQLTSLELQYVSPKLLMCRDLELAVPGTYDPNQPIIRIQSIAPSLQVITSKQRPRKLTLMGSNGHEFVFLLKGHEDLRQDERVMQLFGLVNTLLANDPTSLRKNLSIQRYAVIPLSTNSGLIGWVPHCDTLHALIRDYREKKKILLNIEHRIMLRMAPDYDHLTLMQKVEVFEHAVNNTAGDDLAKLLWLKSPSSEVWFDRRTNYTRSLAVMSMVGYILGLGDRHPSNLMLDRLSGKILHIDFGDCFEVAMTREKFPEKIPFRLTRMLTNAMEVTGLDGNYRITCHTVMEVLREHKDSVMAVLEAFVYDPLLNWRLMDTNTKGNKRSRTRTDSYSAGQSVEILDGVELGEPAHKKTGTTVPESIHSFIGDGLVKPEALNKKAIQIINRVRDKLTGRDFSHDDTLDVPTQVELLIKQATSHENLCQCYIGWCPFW
Chain of PI3Kalpha (P42336 whole entry): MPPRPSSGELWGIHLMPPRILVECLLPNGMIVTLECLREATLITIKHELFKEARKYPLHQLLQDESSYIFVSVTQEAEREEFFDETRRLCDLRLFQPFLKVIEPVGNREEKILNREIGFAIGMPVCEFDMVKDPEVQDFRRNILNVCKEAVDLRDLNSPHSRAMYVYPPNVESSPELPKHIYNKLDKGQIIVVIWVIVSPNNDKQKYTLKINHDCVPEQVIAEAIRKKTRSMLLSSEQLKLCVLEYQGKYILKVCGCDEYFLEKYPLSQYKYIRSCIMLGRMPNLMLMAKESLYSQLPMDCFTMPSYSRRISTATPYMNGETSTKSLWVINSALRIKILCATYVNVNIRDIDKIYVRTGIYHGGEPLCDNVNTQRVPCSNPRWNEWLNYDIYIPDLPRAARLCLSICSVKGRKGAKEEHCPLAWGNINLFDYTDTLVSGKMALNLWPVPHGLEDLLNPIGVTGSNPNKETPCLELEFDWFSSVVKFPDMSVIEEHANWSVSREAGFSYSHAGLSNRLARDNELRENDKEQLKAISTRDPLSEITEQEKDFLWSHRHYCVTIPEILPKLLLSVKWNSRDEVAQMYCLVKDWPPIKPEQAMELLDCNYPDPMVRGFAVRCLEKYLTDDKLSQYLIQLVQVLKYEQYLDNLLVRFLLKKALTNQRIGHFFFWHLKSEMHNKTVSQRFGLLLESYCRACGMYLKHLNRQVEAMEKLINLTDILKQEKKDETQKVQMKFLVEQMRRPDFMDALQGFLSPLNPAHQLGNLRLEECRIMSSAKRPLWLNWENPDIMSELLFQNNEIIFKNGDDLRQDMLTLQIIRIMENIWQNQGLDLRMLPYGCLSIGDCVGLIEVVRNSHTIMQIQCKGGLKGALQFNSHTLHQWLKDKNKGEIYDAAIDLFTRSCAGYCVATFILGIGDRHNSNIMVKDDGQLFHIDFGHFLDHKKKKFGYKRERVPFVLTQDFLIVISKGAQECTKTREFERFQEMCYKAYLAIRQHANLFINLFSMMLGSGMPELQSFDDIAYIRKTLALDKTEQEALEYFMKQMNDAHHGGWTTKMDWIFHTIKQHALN
Chain of PI3Kalpha (P27986 whole entry partner): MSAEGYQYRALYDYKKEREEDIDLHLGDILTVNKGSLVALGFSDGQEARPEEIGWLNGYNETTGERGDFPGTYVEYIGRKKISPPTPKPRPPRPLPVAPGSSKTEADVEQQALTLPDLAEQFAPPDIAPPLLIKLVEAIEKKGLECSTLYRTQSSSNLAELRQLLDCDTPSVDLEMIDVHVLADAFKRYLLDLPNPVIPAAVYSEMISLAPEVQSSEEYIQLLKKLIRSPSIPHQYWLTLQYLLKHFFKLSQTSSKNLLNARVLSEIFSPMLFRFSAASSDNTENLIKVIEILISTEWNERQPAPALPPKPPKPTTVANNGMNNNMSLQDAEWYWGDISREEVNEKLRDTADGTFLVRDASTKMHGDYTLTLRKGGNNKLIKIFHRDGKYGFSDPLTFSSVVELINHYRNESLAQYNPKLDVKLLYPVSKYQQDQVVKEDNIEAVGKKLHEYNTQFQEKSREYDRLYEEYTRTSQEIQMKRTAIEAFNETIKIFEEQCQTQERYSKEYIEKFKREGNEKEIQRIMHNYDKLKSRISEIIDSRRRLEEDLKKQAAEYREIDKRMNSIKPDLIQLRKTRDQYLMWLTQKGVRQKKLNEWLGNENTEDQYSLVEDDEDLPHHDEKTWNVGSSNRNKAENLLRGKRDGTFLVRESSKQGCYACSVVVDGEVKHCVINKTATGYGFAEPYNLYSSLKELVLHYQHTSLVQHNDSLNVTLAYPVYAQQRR
Chain of PI3Kbeta (P42338 whole entry): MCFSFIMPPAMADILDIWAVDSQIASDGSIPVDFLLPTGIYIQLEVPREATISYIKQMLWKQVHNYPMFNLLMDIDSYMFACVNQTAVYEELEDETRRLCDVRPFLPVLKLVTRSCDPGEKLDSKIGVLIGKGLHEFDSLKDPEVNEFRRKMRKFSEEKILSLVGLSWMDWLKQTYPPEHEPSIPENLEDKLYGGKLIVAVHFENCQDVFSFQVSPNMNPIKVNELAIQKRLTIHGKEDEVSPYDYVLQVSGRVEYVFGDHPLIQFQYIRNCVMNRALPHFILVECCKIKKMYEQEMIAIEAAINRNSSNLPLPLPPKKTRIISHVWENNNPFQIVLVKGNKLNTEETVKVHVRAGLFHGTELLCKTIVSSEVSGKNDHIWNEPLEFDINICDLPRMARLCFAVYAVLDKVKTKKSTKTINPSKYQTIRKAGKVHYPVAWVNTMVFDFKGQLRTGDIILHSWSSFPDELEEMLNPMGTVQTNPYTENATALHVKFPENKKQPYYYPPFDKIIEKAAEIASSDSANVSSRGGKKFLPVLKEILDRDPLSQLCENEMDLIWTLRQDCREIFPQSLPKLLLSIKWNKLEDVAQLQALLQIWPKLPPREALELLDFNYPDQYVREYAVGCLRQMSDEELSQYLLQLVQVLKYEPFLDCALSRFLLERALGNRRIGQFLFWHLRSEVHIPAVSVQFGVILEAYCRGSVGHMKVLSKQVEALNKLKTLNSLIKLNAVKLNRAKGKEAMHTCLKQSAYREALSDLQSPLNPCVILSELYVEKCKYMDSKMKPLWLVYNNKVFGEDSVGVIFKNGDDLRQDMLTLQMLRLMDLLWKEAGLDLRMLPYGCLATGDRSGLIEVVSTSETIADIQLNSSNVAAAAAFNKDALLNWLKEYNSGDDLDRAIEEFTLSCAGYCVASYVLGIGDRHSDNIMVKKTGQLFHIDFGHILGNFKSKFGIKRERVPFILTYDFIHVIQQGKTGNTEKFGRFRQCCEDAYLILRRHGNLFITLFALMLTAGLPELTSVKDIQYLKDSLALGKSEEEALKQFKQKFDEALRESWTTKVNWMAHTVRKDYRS
Chain of PI3Kbeta (P27986 whole entry partner): as the sequence (P27986 whole entry partner) above

Turning to `Cn1cc(-c2cc(-c3cnc4c(c3)CCN4)ccn2)n(-c2ccc(C(C)(C)C#N)cc2)c1=O` [Example A43, 2-(4-{5-[4-(2,3-Dihydro-1H-pyrrolo[2,3-b]pyridin-5-yl)pyridin-2-yl]-3-methyl-2-oxo-2,3-dihydroimidazol-1-yl}phenyl)-2-methylpropionitrile], the melting point was found to be 247 °C. Besides, the IC50 at PI3Kbeta was 100 to 10000 nM. In addition, the IC50 on PI3Kalpha is 0.1 to 100 nM. For the same molecule, the Kd in data set [1] lay in the range of 0.1 to 100 nM. Moreover, the IC50 in data set [2] is 100 to 10000 nM. The molecule further registered an IC50 at DNA-PK protein complex of 0.1 to 100 nM. Moreover, on mTOR, the IC50 lay within 100 to 10000 nM.

The molecule `Cn1cc(-c2cc(-c3cnc4c(c3)CC(=O)N4)ccn2)n(-c2ccc(C(C)(C)C#N)cc2)c1=O` [Example A44, 2-Methyl-2-(4-{3-methyl-2-oxo-5-[4-(2-oxo-2,3-dihydro-1H-pyrrolo[2,3-b]pyridin-5-yl)pyridin-2-yl]-2,3-dihydroimidazol-1-yl}phenyl)propionitrile] showed a melting point of 263 °C. Further, the IC50 on PI3Kbeta is 100 to 10000 nM. Besides, at PI3Kalpha, the IC50 lay within 100 to 10000 nM. Also, the Kd in data set [1] was 0.1 to 100 nM. The IC50 in data set [2] lay within 100 to 10000 nM. At DNA-PK protein complex, this molecule had an IC50 of 0.1 to 100 nM. Moreover, the IC50 against mTOR was 100 to 10000 nM.

Consider `CN1CCN(c2ccc(-n3c(-c4cc(-c5cnc6[nH]ccc6c5)ccn4)cn(C)c3=O)cc2C(F)(F)F)CC1` [Example A49, 1-Methyl-3-[4-(4-methylpiperazin-1-yl)-3-trifluoromethylphenyl]-4-[4-(1H-pyrrolo[2,3-b]pyridin-5-yl)pyridin-2-yl]-1,3-dihydroimidazol-2-one], for which the melting point stood at 241 °C. Besides, the half-maximal inhibitory concentration (IC50) on PI3Kbeta was 100 to 10000 nM. Also, the IC50 at PI3Kalpha lay in the range of 100 to 10000 nM. For the same molecule, in data set [1], the dissociation constant (Kd) was in the range of 0.1 to 100 nM. The IC50 in data set [2] lay within 100 to 10000 nM. The molecule further displayed an IC50 against DNA-PK protein complex of 0.1 to 100 nM. This molecule also showed an IC50 against mTOR of 100 to 10000 nM.

Regarding `Cn1cc(-c2cc(-c3ccc4[nH]ncc4c3)ccn2)n(-c2ccc(C(C)(C)C#N)cc2)c1=O` [Example A52, 2-(4-{5-[4-(1H-Indazol-5-yl)pyridin-2-yl]-3-methyl-2-oxo-2,3-dihydroimidazol-1-yl}phenyl)-2-methylpropionitrile], the melting point was 165 °C. The IC50 at PI3Kbeta is 100 to 10000 nM. Moreover, the IC50 at PI3Kalpha lay within 100 to 10000 nM. Further, in data set [1], the Kd was in the range of 0.1 to 100 nM. Moreover, the IC50 in data set [2] lay within 100 to 10000 nM. The same molecule displayed an IC50 at DNA-PK protein complex of 0.1 to 100 nM. In addition, the IC50 against mTOR was in the range of 100 to 10000 nM.

`Cn1cc(-c2cc(-c3cnc4[nH]ccc4c3)ccn2)n(-c2cccc(C#N)c2)c1=O` [Example A55, 3-{3-Methyl-2-oxo-5-[4-(1H-pyrrolo[2,3-b]pyridin-5-yl)pyridin-2-yl]-2,3-dihydro-imidazol-1-yl}benzonitrile]: the melting point came out at 265 °C. The IC50 at PI3Kbeta was 100 to 10000 nM. In addition, the IC50 at PI3Kalpha is 100 to 10000 nM. Besides, in data set [1], the Kd was 100 to 10000 nM. Further, in data set [2], the IC50 was 100 to 10000 nM. Also, at DNA-PK protein complex, the IC50 lay within 0.1 to 100 nM. The IC50 against mTOR lay within 100 to 10000 nM.

On to `O=c1cc(N2CCOCC2)oc2c(-c3ccccc3)cccc12` [LY294002], for which the IC50 on CK2 protein kinase was 5000 to 10000 nM.
